# In patent US20030096264A1, “Multi-parameter high throughput screening assays (MPHTS)” (Psychiatric Genomics, Inc., priority 2001, published 2003):
# Tested on: rat hippocampus
# Experiment: In vivo expression profile in hippocampus of rats treated with valproate
# Conditions: three weeks
# Method: Specifically, in these experiments rats were treated with valproate, and gene expression levels in the hippocampus of each rat were measured for a plurality of different genes.
# In more detail, twenty rats were divided into two groups, containing ten individuals each. One group of ten rats was used as the control group, whereas the other group functioned as the experimental group. Each rat in the experimental group was injected twice daily with 250 mg valproate for each kilogram of the rat's body mass. Each rat in the control group was similarly injected, but with a vehicle that contained no active ingredient. After three weeks dosing, the rats were sacrificed and their brains removed. Each rat's brain was divided in half. The hippocampus was then removed from each half and flash frozen. The half hippocampus tissue from the rats in each group was combined and total RNA was extracted from the tissue using TriReagent (Invitrogen Corp., Carlsbad Calif.) following the manufacturer's instructions. mRNA was purified with Oligotext (Qiagen Inc., Valencia Calif.) following the manufacturer's recommended protocol. mRNA quality and concentration was determined using the Agilent Bioanalyzer.
# For expression profile analysis, mRNA from the pooled tissues of the control group was measured with Cy3 dye, and mRNA from the pooled tissues of the experimental group was measured with Cy5 dye. The labeled probes were then mixed and hybridized to a Rat Tox3 microarray (Incyte Genomics, Palo Alto Calif.). The relative signal intensity from each fluorescent dye was measured for each element (i.e., for each “gene”) on the microarray, normalized for differences, and the relative difference in expression level determined.
# The relative differences in expression levels for various genes are plotted in FIG. 4. Specifically, each point on the plot represents a gene whose expression level was measured in both the experimental and control groups. Each point's position along the horizontal axis indicates the relative Cy3 signal intensity measured for that gene and reflects, therefore, the gene's expression in rats that were not treated with valproate. A point's position along the vertical axis indicates the relative Cy5 signal intensity measured for the corresponding gene, reflecting the gene's expression in the hippocampus of rats that were treated with valproate. […] By contrast, changes by at least a factor of 1.5 (i.e., θ≧1.5) indicate significant changes in expression in response to the valproate treatment (identified using a Rat Toxicology array from Incyte, Palo Alto, Calif.). These genes are listed in Table 5, below, along with GenBank Accession number for those genes. Again, a cDNA sequence for each gene listed in Table 5 is also provided in the accompanying Sequence Listing, and its sequence identifier is specified in Table 5 along with the GenBank Accession number.
structure (smiles),measurement,setting,value
CCCC(CCC)C(=O)O [valproate],Φ: pol polyprotein,"250 mg/kg twice daily, AAC31805 SEQ ID NO: 85",1.9
same,Φ: CGI-83 protein,"250 mg/kg twice daily, AAD34078 SEQ ID NO: 89",1.9
same,Φ: CGI-86 protein,"250 mg/kg twice daily, AAD34081 SEQ ID NO: 88",1.9
same,"Φ: Rat RT1-DOb gene, partial cds.","250 mg/kg twice daily, AB008110 SEQ ID NO: 63",2.4
same,Φ: Mouse BAC-146N21 Chromosome X contains iduronate-2-sulfatase gene; complete sequence.,"250 mg/kg twice daily, AC002315 SEQ ID NO: 96",1.8
same,"Φ: Mouse chromosome unknown clone rp21-657p21 strain 129S6/SvEvTac, complete sequence.","250 mg/kg twice daily, AC005743 SEQ ID NO: 62",2.5
same,"Φ: Mouse chromosome 18 clone mgsriii-pl-3084 strain RIII Fibroblast cell line C 127, complete sequence.","250 mg/kg twice daily, AC007665 SEQ ID NO: 75",2.1
same,"Φ: Mouse chromosome 10, clone RP21-247L16, complete sequence.","250 mg/kg twice daily, AC012302 SEQ ID NO: 87",1.9
same,"Φ: Mouse chromosome 18 clone RP23-16108, complete sequence.","250 mg/kg twice daily, AC020967 SEQ ID NO: 57",3.1
same,Φ: Mouse TCR beta locus from bases 250554 to 501917 (section 2 of 3) of the complete sequence.,"250 mg/kg twice daily, AE000664 SEQ ID NO: 58",2.8
same,Φ: Mouse TCR beta locus from bases 250554 to 501917 (section 2 of 3) of the complete sequence.,"250 mg/kg twice daily, AE000664 SEQ ID NO: 61",2.5
same,Φ: Mouse TCR beta locus from bases 250554 to 501917 (section 2 of 3) of the complete sequence.,"250 mg/kg twice daily, AE000664 SEQ ID NO: 79",2
same,"Φ: Rat strain Long Evans shaker myelin basic protein (Mbp) gene, intron 3, interrupted by ETn retrotransposon.","250 mg/kg twice daily, AF076337 SEQ ID NO: 65",2.3
same,"Φ: Mouse LDL receptor member LR3 mRNA, complete cds.","250 mg/kg twice daily, AF077847 SEQ ID NO: 70",2.2
same,"Φ: Mouse MHC class III region RD gene, partial eds; Bf, C2, G9A, NG22, G9, HSP70, HSP70, HSC70t, and smRNP genes, complete cds; G7A gene, partial cds; and unknown genes.","250 mg/kg twice daily, AF109906 SEQ ID NO: 86",1.9
same,"Φ: Mouse chromosome X clone BAC B22804, complete sequence.","250 mg/kg twice daily, AF121351 SEQ ID NO: 71",2.2
same,"Φ: Mouse (Mus musculus domesticus) X chromosome region similar to Human DXS963E, complete sequence.","250 mg/kg twice daily, AF130357 SEQ ID NO: 97",1.8
same,"Φ: Rat cytosolic branch chain aminotransferase BCATc mRNA, partial cds.","250 mg/kg twice daily, AF 165887 SEQ ID NO: 111",−1.5
same,"Φ: Rat calmodulin mRNA, complete cds.","250 mg/kg twice daily, AF178845 SEQ ID NO: 102",−1.6
same,"Φ: Mouse Naip3 gene, exon 1; neuronal apoptosis inhibitory protein 1 (Naip 1) and general transcription factor IIH polypeptide 2 (Gtf2h2) genes, complete cds.","250 mg/kg twice daily, AF242432 SEQ ID NO: 80",2
same,"Φ: Mouse BAC 171m12 MESDC1 (Mesdc1) and MESDC2 (Mesdc2) genes, complete cds.","250 mg/kg twice daily, AF311213 SEQ ID NO: 67",2.3
same,Φ: Rat gene encoding tyrosine aminotransferase.,"250 mg/kg twice daily, AJ010709 SEQ ID NO: 93",1.8
same,Φ: Rat mRNA for Sulfotransferase K2.,"250 mg/kg twice daily, AJ238392 SEQ ID NO: 77",2
same,Φ: unnamed protein product,"250 mg/kg twice daily, BAB15010 SEQ ID NO: 90",1.8
same,Φ: hypothetical protein,"250 mg/kg twice daily, CAB70864 SEQ ID NO: 117",−1.5
same,"Φ: Rat mRNA for histamine N-methyltransferase, complete cds.","250 mg/kg twice daily, D10693 SEQ ID NO: 72",2.1
same,"Φ: Rat mRNA for delta-4-3-ketosteroid 5-beta-reductase, complete cds.","250 mg/kg twice daily, D17309 SEQ ID NO: 68",2.2
same,"Φ: Rat mRNA for 14-3-3 protein theta-subtype, complete cds.","250 mg/kg twice daily, D17614 SEQ ID NO: 109",−1.5
same,"Φ: Mouse mRNA for plexin 2, complete cds.","250 mg/kg twice daily, D86949 SEQ ID NO: 95",1.8
same,"Φ: Rat clathrin heavy chain mRNA, complete cds.","250 mg/kg twice daily, J03583 SEQ ID NO: 112",−1.5
same,Φ: rat myelin basic protein (mbp) gene mrna.,"250 mg/kg twice daily, K00512 SEQ ID NO: 99",−1.6
same,Φ: Rat long terminal repeat DNA sequence.,"250 mg/kg twice daily, L19707 SEQ ID NO: 73",2.1
same,"Φ: Rat stress activated protein kinase alpha I mRNA, complete cds.","250 mg/kg twice daily, L27111 SEQ ID NO: 105",−1.5
same,"Φ: Murine phosphoprotein phosphatase mRNA, complete cds.","250 mg/kg twice daily, M8 1475 SEQ ID NO: 114",−1.5
same,"Φ: Mouse myelin proteolipid protein mRNA, complete cds.","250 mg/kg twice daily, M15442 SEQ ID NO: 103",−1.6
same,"Φ: Rat nuclear-encoded mitochondrial ATP synthase beta-subunit mRNA, 5′ end.","250 mg/kg twice daily, M25301 SEQ ID NO: 107",−1.5
same,"Φ: Rat calcincurin A mRNA, complete cds.","250 mg/kg twice daily, M29275 SEQ ID NO: 98",−1.7
same,"Φ: Rat senescence marker protein 2B gene, exons 1 and 2.","250 mg/kg twice daily, M29302 SEQ ID NO: 81",1.9
same,"Φ: Rat thymosin beta-4 mRNA, complete cds.","250 mg/kg twice daily, M34043 SEQ ID NO: 104",−1.5
same,"Φ: Rat cytochrome P450 IV A1 (CYP4A1) gene, complete cds.","250 mg/kg twice daily, M57718 SEQ ID NO: 64",2.4
same,"Φ: Rat (LxRN3) LINE 1 repeat element, ORF II.","250 mg/kg twice daily, M60824 SEQ ID NO: 66",2.3
same,"Φ: Rat (clone pRHx1) hemopexin mRNA, complete cds.","250 mg/kg twice daily, M62642 SEQ ID NO: 84",1.9
same,"Φ: Rat 3-alpha-hydroxysteroid dehydrogenase (3-alpha-HSD) mRNA, complete cds.","250 mg/kg twice daily, M64393 SEQ ID NO: 69",2.2
same,Φ: Rat kallikrein-binding protein (RKBP) gene.,"250 mg/kg twice daily, M67496 SEQ ID NO: 74",2.1
same,"Φ: {clone 6B1, intracisternal A-particle derived LTR fragment} [rats, Genomic, 208 nt].","250 mg/kg twice daily, S51653 SEQ ID NO: 76",2.1
same,"Φ: {clone E512, estrogen induced gene} [rats, Sprague-Dawley, hypothalamus, mRNA Partial, 259 nt].","250 mg/kg twice daily, S74327 SEQ ID NO: 118",−1.5
same,"Φ: Rat Sprague-Dawley UDP-glucuronosyltransferase (UGT2B12) mRNA, complete cds.","250 mg/kg twice daily, U06273 SEQ ID NO: 59",2.7
same,Φ: Rat LEW/N clone D0N544 satellite DNA sequence.,"250 mg/kg twice daily, U06685 SEQ ID NO: 82",1.9
same,Φ: Rat Eker rat-associated intracisternal-A-particle element.,"250 mg/kg twice daily, U23776 SEQ ID NO: 83",1.9
same,Φ: Rat Eker rat-associated intracisternal-A-particle element.,"250 mg/kg twice daily, U23776 SEQ ID NO: 94",1.8
same,"Φ: Rat protein kinase C-binding protein NELL2 mRNA, complete cds.","250 mg/kg twice daily, U48245 SEQ ID NO: 106",−1.5
same,"Φ: Mouse hippocampal amyloid precursor protein mRNA, complete cds.","250 mg/kg twice daily, U84012 SEQ ID NO: 116",−1.5
same,"Φ: Rat mRNA for amyloidogenic glycoprotein (rAG), cognate of Human A4 amyloid precursor protein.","250 mg/kg twice daily, X07648 SEQ ID NO: 101",−1.6
same,"Φ: Rat CaMII gene, exon 1 (and joined cds).","250 mg/kg twice daily, X13833 SEQ ID NO: 113",−1.5
same,Φ: Rat mRNA for Mx3 protein.,"250 mg/kg twice daily, X52713 SEQ ID NO: 78",2
same,Φ: Mouse rac1 gene.,"250 mg/kg twice daily, X57277 SEQ ID NO: 115",−1.5
same,Φ: Rat mRNA for cdc2 promoter region.,"250 mg/kg twice daily, X60767 SEQ ID NO: 92",1.8
same,Φ: Rat L1 retroposon/pseudogene; 3′ flank.,"250 mg/kg twice daily, X61298 SEQ ID NO: 60",2.6
same,Φ: Rat mRNA for ubiquitin and ribosomal protein S27a.,"250 mg/kg twice daily, X81839 SEQ ID NO: 108",−1.5
same,Φ: Rat MAL protein gene and mRNA.,"250 mg/kg twice daily, X82557 SEQ ID NO: 110",−1.5
same,Φ: Rat mRNA for Myelin-associated/Oligodendrocytic Basic Protein-81.,"250 mg/kg twice daily, X87900 SEQ ID NO: 100",−1.6
same,Φ: Rat mRNA for Tsx gene.,"250 mg/kg twice daily, X99797 SEQ ID NO: 91",1.8
same,"Φ: Rat L1 retrotransposon mlvi2-rn14, 5′UTR and putative RNA binding protein 1 gene, partial cds.","250 mg/kg valproate twice daily, vs vehicle, U87602 SEQ ID NO: 56",3.6
